Experimental data: the SangsterLogP compilation

Experiment: method code SF-AS, from DOI: 10.1248/cpb.33.2403, PMID: 4064199

| logP | Compound |
| --- | --- |
| 3.2 | CCN(CC)C(=O)OCCc1ccccc1 |
| 2.54 | CN(C)C(=O)OCCc1c[nH]c2ccccc12 |
| 2.4 | CN(C)C(=O)OCCc1ccccc1 |
| 2.93 | CN(C)C(=O)OCCCc1ccccc1 |
| 2.93 | CCN(CC)C(=O)OCc1ccccc1 |
| 3.3 | CCN(CC)C(=O)OCCc1c[nH]c2ccccc12 |
| 2.82 | CCN(CC)C(=O)OCC(C)C |

Further lines, the compound ahead of its results:

| Compound | logP |
| --- | --- |
| NC(=O)OCCCc1cccnc1 | 0.46 |
| CCC(CC)COC(N)=O | 1.98 |
| CCC(CC)COC(=O)N(C)C | 2.87 |
| CN(C)C(=O)OCCCc1cccnc1 | 1.44 |
| CC(C)OC(=O)N(C)C | 1.38 |
| NC(=O)OCc1ccc(Cl)cc1 | 1.97 |
| CNC(=O)OCc1ccccc1 | 1.68 |
| NC(=O)OCCc1c[nH]c2ccccc12 | 1.69 |
| NC(=O)OCCc1ccccc1 | 1.5 |
| NC(=O)OCCCc1ccccc1 | 1.96 |

Experiment: method code SF-HPLC, from DOI: 10.1248/cpb.33.2403, PMID: 4064199

| logP | Compound |
| --- | --- |
| 2.6 | CC(Cc1ccccc1)OC(=O)N(C)C (stereo unspecified) |
| 3.6 | CCC(CC)COC(=O)N(CC)CC |

Experiment: method code SF-GLC, from DOI: 10.1248/cpb.33.2403, PMID: 4064199

| Compound | logP |
| --- | --- |
| CC(C)COC(=O)N(C)C | 2 |
| CC(C)COC(N)=O | 0.98 |
